According to EPA's CvTdb concentration-time database (doi:10.1093/toxsci/kfy020):

Test system: rat
Experiment: concentration in plasma after dosing
Details: dosed: Ondansetron, male, Sprague-Dawley

Cc1nccn1CC1CCc2c(c3ccccc3n2C)C1=O (stereo not given) [Ondansetron]
concentration in plasma (1 min, 1.0000000000 mg/kg, iv): 16200 ng/mL | concentration in plasma (1 min, 4.0000000000 mg/kg, iv): 37100 ng/mL | concentration in plasma (1 min, 8.0000000000 mg/kg, iv): 104000 ng/mL | concentration in plasma (1 min, 20.0000000000 mg/kg, iv): 175000 ng/mL | concentration in plasma (0.05 h, 1.0000000000 mg/kg, iv): 781 ng/mL | concentration in plasma (0.05 h, 4.0000000000 mg/kg, iv): 3050 ng/mL | concentration in plasma (0.05 h, 4.0000000000 mg/kg, oral): 70 ng/mL | concentration in plasma (0.05 h, 8.0000000000 mg/kg, iv): 6280 ng/mL | concentration in plasma (0.05 h, 8.0000000000 mg/kg, oral): 100 ng/mL | concentration in plasma (0.05 h, 20.0000000000 mg/kg, iv): 17600 ng/mL | concentration in plasma (0.05 h, 20.0000000000 mg/kg, oral): 491 ng/mL | concentration in plasma (5 min, 4.0000000000 mg/kg, oral): 244 ng/mL | concentration in plasma (5 min, 8.0000000000 mg/kg, oral): 249 ng/mL | concentration in plasma (5 min, 20.0000000000 mg/kg, oral): 1110 ng/mL | concentration in plasma (7 min, 1.0000000000 mg/kg, iv): 420 ng/mL | concentration in plasma (7 min, 4.0000000000 mg/kg, iv): 1480 ng/mL | concentration in plasma (7 min, 8.0000000000 mg/kg, iv): 3240 ng/mL | concentration in plasma (7 min, 20.0000000000 mg/kg, iv): 10100 ng/mL | concentration in plasma (10 min, 4.0000000000 mg/kg, oral): 171 ng/mL | concentration in plasma (10 min, 8.0000000000 mg/kg, oral): 298 ng/mL | concentration in plasma (10 min, 20.0000000000 mg/kg, oral): 808 ng/mL | concentration in plasma (0.25 h, 1.0000000000 mg/kg, iv): 231 ng/mL | concentration in plasma (0.25 h, 4.0000000000 mg/kg, iv): 830 ng/mL | concentration in plasma (0.25 h, 8.0000000000 mg/kg, iv): 1860 ng/mL | concentration in plasma (0.25 h, 20.0000000000 mg/kg, iv): 5550 ng/mL | concentration in plasma (20 min, 4.0000000000 mg/kg, oral): 83.7 ng/mL | concentration in plasma (20 min, 8.0000000000 mg/kg, oral): 138 ng/mL | concentration in plasma (20 min, 20.0000000000 mg/kg, oral): 441 ng/mL | concentration in plasma (0.5 h, 1.0000000000 mg/kg, iv): 129 ng/mL | concentration in plasma (0.5 h, 4.0000000000 mg/kg, iv): 429 ng/mL | concentration in plasma (0.5 h, 4.0000000000 mg/kg, oral): 49.1 ng/mL | concentration in plasma (0.5 h, 8.0000000000 mg/kg, iv): 960 ng/mL | concentration in plasma (0.5 h, 8.0000000000 mg/kg, oral): 92 ng/mL | concentration in plasma (0.5 h, 20.0000000000 mg/kg, iv): 2930 ng/mL | concentration in plasma (0.5 h, 20.0000000000 mg/kg, oral): 288 ng/mL | concentration in plasma (40 min, 4.0000000000 mg/kg, oral): 39.6 ng/mL | concentration in plasma (40 min, 8.0000000000 mg/kg, oral): 70 ng/mL | concentration in plasma (40 min, 20.0000000000 mg/kg, oral): 255 ng/mL | concentration in plasma (0.75 h, 1.0000000000 mg/kg, iv): 72.6 ng/mL | concentration in plasma (0.75 h, 4.0000000000 mg/kg, iv): 256 ng/mL | concentration in plasma (0.75 h, 8.0000000000 mg/kg, iv): 597 ng/mL | concentration in plasma (0.75 h, 20.0000000000 mg/kg, iv): 1860 ng/mL | concentration in plasma (50 min, 4.0000000000 mg/kg, oral): 30.2 ng/mL | concentration in plasma (50 min, 8.0000000000 mg/kg, oral): 57.9 ng/mL | concentration in plasma (50 min, 20.0000000000 mg/kg, oral): 197 ng/mL | concentration in plasma (1 h, 1.0000000000 mg/kg, iv): 47.1 ng/mL | concentration in plasma (1 h, 4.0000000000 mg/kg, iv): 176 ng/mL | concentration in plasma (1 h, 4.0000000000 mg/kg, oral): 23.5 ng/mL | concentration in plasma (1 h, 8.0000000000 mg/kg, iv): 379 ng/mL | concentration in plasma (1 h, 8.0000000000 mg/kg, oral): 40.6 ng/mL | concentration in plasma (1 h, 20.0000000000 mg/kg, iv): 1260 ng/mL | concentration in plasma (1 h, 20.0000000000 mg/kg, oral): 165 ng/mL | concentration in plasma (1.25 h, 1.0000000000 mg/kg, iv): 31.1 ng/mL | concentration in plasma (1.25 h, 4.0000000000 mg/kg, iv): 112 ng/mL | concentration in plasma (1.25 h, 8.0000000000 mg/kg, iv): 246 ng/mL | concentration in plasma (1.25 h, 20.0000000000 mg/kg, iv): 813 ng/mL | concentration in plasma (1.5 h, 4.0000000000 mg/kg, iv): 75.7 ng/mL | concentration in plasma (1.5 h, 8.0000000000 mg/kg, iv): 176 ng/mL | concentration in plasma (1.5 h, 8.0000000000 mg/kg, oral): 21.4 ng/mL | concentration in plasma (1.5 h, 20.0000000000 mg/kg, iv): 561 ng/mL | concentration in plasma (1.5 h, 20.0000000000 mg/kg, oral): 82.7 ng/mL | concentration in plasma (2 h, 4.0000000000 mg/kg, iv): 38.3 ng/mL | concentration in plasma (2 h, 8.0000000000 mg/kg, iv): 87.4 ng/mL | concentration in plasma (2 h, 20.0000000000 mg/kg, iv): 308 ng/mL | concentration in plasma (2 h, 20.0000000000 mg/kg, oral): 46.8 ng/mL | concentration in plasma (2.5 h, 8.0000000000 mg/kg, iv): 44.2 ng/mL | concentration in plasma (2.5 h, 20.0000000000 mg/kg, iv): 184 ng/mL | concentration in plasma (3 h, 8.0000000000 mg/kg, iv): 23.3 ng/mL | concentration in plasma (3 h, 20.0000000000 mg/kg, iv): 101 ng/mL | concentration in plasma (4 h, 20.0000000000 mg/kg, iv): 39.1 ng/mL
